According to patent US20120034613A1, “Apparatus and Method for Testing Relationships Between Gene Expression and Physical Appearance of Skin” (NSE Products, Inc., priority 2010, published 2012):

System: EpidermFT™ Skin Model (EFT-400) full thickness skin cultures
Assay: Affymetrix GeneChip HG U133 Plus 2.0 microarray global gene expression, agent-exposed vs untreated skin cultures
Format: cell-based, human
Conditions: Salicin 0.5% vs Untreated Control

OCc1ccccc1O[C@@H]1O[C@H](CO)[C@@H](O)[C@H](O)[C@H]1O [Salicin, 2-(Hydroxymethyl)phenyl β-D-glucospyranoside]
Direction KLK1 (216699_s_at) (24 hr): down | Direction KRT5 (201820_at) (24 hr): down | Direction KRT6A (209125_at) (24 hr): down | Direction KRT10 (207023_x_at) (24 hr): down | Direction KRTCAP3 (235148_at) (24 hr): down | Direction LMNA (212089_at) (24 hr): down | Direction LMNA (1554600_s_at) (24 hr): down | Direction LMNB1 (203276_at) (24 hr): down | Direction LOC284837 (1563088_a_at) (24 hr): down | Direction LOC286440 (209733_at) (24 hr): down | Direction LOC400027 (226413_at) (24 hr): down | Direction LOC401233 (1558882_at) (24 hr): down | Direction LOC648245 (227739_at) (24 hr): down | Direction LOC652968 (233528_s_at) (24 hr): down | Direction LOC727820 (227384_s_at) (24 hr): down | Direction LOC100128443 /// MAST4 (210958_s_at) (24 hr): down | Direction LOC100128822 (235174_s_at) (24 hr): down | Direction LOC100130837 (242255_at) (24 hr): down | Direction LOC100131262 (1558152_at) (24 hr): down | Direction LOC100131851 /// LOC100134497 /// LOC401002 /// LOC646674 /// SSBP3 (222482_at) (24 hr): down | Direction LOC100133772 /// SLC16A5 (206600_s_at) (24 hr): down | Direction LOC100134937 (229685_at) (24 hr): down | Direction LPHN1 (47560_at) (24 hr): down | Direction LY75 (205668_at) (24 hr): down | Direction LYSMD4 (228954_at) (24 hr): down | Direction MAFB (218559_s_at) (24 hr): down | Direction MAPRE2 (202501_at) (24 hr): down | Direction MEGF9 (212831_at) (24 hr): down | Direction MFAP5 (213764_s_at) (24 hr): down | Direction MIB2 (226644_at) (24 hr): down | Direction MPP7 (238451_at) (24 hr): down | Direction MTHFR (226929_at) (24 hr): down | Direction MTMR1 (214975_s_at) (24 hr): down | Direction MUC1 (213693_s_at) (24 hr): down | Direction MYO18A /// TIAF1 (202039_at) (24 hr): down | Direction NBEAL2 (212443_at) (24 hr): down | Direction NCF2 (209949_at) (24 hr): down | Direction NCRNA00086 (238697_at) (24 hr): down | Direction PAIP1 (208051_s_at) (24 hr): down | Direction PAIP2B (221868_at) (24 hr): down | Direction PAWR (204005_s_at) (24 hr): down | Direction PAWR (229515_at) (24 hr): down | Direction PDIK1L (227255_at) (24 hr): down | Direction PERP (217744_s_at) (24 hr): down | Direction PIGW (1558292_s_at) (24 hr): down | Direction PLEKHA2 (225136_at) (24 hr): down | Direction PLS3 (201215_at) (24 hr): down | Direction PNMA2 (209598_at) (24 hr): down | Direction POLE2 (205909_at) (24 hr): down | Direction POLH (231115_at) (24 hr): down | Direction POLR3B (219459_at) (24 hr): down | Direction POU3F1 (208345_s_at) (24 hr): down | Direction PPAP2C (209529_at) (24 hr): down | Direction PPP1CB (201409_s_at) (24 hr): down | Direction PPP2CA (208652_at) (24 hr): down | Direction PRDX2 (39729_at) (24 hr): down | Direction PRKX (204061_at) (24 hr): down | Direction PTCH1 (209815_at) (24 hr): down | Direction PTGFR (1555097_a_at) (24 hr): down | Direction PVRL1 (225211_at) (24 hr): down | Direction RAB7B (1553982_a_at) (24 hr): down | Direction RAPGEFL1 (218657_at) (24 hr): down | Direction RHOV (241990_at) (24 hr): down | Direction RICS (203431_s_at) (24 hr): down | Direction RNF170 (226104_at) (24 hr): down | Direction RORA (235567_at) (24 hr): down | Direction RPS6KA5 (204633_s_at) (24 hr): down | Direction RPS6KB2 (203777_s_at) (24 hr): down | Direction SCRN3 (222849_s_at) (24 hr): down | Direction SDCCAG8 (243963_at) (24 hr): down | Direction SEMA4D (203528_at) (24 hr): down | Direction SERPINB1 (213572_s_at) (24 hr): down | Direction SETBP1 (227478_at) (24 hr): down | Direction SHROOM2 (204967_at) (24 hr): down | Direction SLC5A3 (212944_at) (24 hr): down | Direction SLC24A3 (219090_at) (24 hr): down | Direction SLC45A4 (225598_at) (24 hr): down | Direction SLCO3A1 (219229_at) (24 hr): down | Direction SMAP2 (225282_at) (24 hr): down | Direction SMCR7 (235896_s_at) (24 hr): down | Direction SNX21 (1553960_at) (24 hr): down | Direction SNX24 (218705_s_at) (24 hr): down | Direction SORD (201563_at) (24 hr): down | Direction ST8SIA4 (230836_at) (24 hr): down | Direction STK24 (208854_s_at) (24 hr): down | Direction SYNGR2 (201079_at) (24 hr): down | Direction TANC1 (225308_s_at) (24 hr): down | Direction TCEA3 (226388_at) (24 hr): down | Direction TCHP (223455_at) (24 hr): down | Direction TGOLN2 (1554608_at) (24 hr): down | Direction THBD (203888_at) (24 hr): down | Direction TIMM22 (219184_x_at) (24 hr): down | Direction TMC5 (222904_s_at) (24 hr): down | Direction TMEM19 (226860_at) (24 hr): down | Direction TMEM45A (219410_at) (24 hr): down | Direction TMEM50B (225182_at) (24 hr): down | Direction TMEM80 (65630_at) (24 hr): down | Direction TP53I3 (210609_s_at) (24 hr): down | Direction TRAF3IP2 (202987_at) (24 hr): down | Direction TRIM2 (202342_s_at) (24 hr): down | Direction TTC30B (1554588_a_at) (24 hr): down | Direction VPS4B (218171_at) (24 hr): down | Direction WNK1 (39313_at) (24 hr): down | Direction WNK1 (211993_at) (24 hr): down | Direction ZBTB1 (1557036_at) (24 hr): down | Direction ZDHHC21 (241946_at) (24 hr): down | Direction ZFYVE21 (219929_s_at) (24 hr): down | Direction ZHX1 (223213_s_at) (24 hr): down | Direction ZHX1 (223214_s_at) (24 hr): down | Direction ZNF85 (1554445_at) (24 hr): down | Direction ZNF561 (235200_at) (24 hr): down | Direction ZNF589 (219968_at) (24 hr): down | Direction ZNF823 (229732_at) (24 hr): down | Direction ABHD2 (205566_at) (24 hr treatment): up
